According to the kinase profiling compilation of Christmann-Franck et al. (2016):

What was measured:
Assay in all cases: KINOMEscan competition binding
Details in all cases: compound 10.0 µM
MAP4K1 (human) = MAP4K1 (human) (UniProt Q92918)
MAP3K6 (human) = MAP3K6 (human) (UniProt O95382)
PKN3 (M.tuberculosis) = PKN3 (M.tuberculosis) (UniProt Q6P5Z2)
MET (human) = MET (human) (UniProt P08581)
LYN (human) = LYN (human) (UniProt P07948)
PRKG1 (human) = PRKG1 (human) (UniProt Q13976)
STK38L (human) = STK38L (human) (UniProt Q9Y2H1)
NUAK1 (human) = NUAK1 (human) (UniProt O60285)
Chain of NUAK1 (human) (O60285 whole entry, looked up): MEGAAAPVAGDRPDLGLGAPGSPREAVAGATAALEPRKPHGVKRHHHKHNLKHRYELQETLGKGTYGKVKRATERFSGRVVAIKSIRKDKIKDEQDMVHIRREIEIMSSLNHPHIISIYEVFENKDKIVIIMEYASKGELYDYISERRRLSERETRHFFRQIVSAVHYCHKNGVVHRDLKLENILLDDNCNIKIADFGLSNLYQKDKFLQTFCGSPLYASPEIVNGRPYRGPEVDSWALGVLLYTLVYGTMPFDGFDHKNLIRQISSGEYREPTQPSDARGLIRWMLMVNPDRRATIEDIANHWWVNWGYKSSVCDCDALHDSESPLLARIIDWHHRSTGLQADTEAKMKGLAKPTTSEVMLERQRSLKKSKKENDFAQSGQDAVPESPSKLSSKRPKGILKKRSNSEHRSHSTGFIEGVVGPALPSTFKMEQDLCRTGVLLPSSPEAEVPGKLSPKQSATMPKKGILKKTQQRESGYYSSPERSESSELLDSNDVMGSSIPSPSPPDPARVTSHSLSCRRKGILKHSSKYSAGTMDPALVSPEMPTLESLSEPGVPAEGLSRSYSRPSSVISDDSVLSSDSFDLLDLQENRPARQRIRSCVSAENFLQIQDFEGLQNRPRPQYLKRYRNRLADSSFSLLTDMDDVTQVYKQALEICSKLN

EPHB1 (human) = EPHB1 (human) (UniProt P54762)
[1] = tested on: KIT (human), P10721 [L576P]
BRSK2 (human) = BRSK2 (human) (UniProt Q8IWQ3)
PTK2B (human) = PTK2B (human) (UniProt Q14289)
Chain of PTK2B (human) (Q14289 whole entry, looked up): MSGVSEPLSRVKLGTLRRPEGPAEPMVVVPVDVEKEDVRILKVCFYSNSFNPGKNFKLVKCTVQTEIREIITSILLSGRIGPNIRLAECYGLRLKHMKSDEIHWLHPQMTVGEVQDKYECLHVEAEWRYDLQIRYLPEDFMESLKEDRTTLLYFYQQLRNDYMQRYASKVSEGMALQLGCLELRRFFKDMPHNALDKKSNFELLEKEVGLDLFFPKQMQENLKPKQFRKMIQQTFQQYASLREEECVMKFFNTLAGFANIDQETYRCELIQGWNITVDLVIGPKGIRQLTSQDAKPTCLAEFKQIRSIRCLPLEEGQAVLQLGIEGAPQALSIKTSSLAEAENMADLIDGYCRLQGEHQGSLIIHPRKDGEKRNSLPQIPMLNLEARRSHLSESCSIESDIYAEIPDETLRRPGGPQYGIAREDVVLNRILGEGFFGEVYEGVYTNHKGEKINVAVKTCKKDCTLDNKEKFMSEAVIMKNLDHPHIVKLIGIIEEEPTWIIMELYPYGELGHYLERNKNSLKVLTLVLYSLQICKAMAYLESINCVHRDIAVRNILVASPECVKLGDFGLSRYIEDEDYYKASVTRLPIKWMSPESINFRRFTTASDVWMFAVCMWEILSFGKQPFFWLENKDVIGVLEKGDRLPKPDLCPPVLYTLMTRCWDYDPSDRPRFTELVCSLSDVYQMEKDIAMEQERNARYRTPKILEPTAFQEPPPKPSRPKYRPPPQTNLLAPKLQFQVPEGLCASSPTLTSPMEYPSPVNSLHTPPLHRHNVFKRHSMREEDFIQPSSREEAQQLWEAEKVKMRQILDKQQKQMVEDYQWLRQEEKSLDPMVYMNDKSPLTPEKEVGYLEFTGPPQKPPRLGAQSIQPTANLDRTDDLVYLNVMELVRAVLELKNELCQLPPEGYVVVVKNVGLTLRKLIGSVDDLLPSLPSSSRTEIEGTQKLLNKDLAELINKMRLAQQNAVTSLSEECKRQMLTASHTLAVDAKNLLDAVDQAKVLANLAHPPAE

STK32B (human) = STK32B (human) (UniProt Q9NY57)
STK17B (human) = STK17B (human) (UniProt O94768)
PHKG2 (human) = PHKG2 (human) (UniProt P15735)
ULK3 (human) = ULK3 (human) (UniProt Q6PHR2)
MAPK3 (human) = MAPK3 (human) (UniProt P27361)
FES (human) = FES (human) (UniProt P07332)
MINK1 (human) = MINK1 (human) (UniProt Q8N4C8)
CDK13 (human) = CDK13 (human) (UniProt Q14004)
CDK11B (human) = CDK11B (human) (UniProt P21127)
MAST1 (human) = MAST1 (human) (UniProt Q9Y2H9)
NEK6 (human) = NEK6 (human) (UniProt Q9HC98)
AAK1 (human) = AAK1 (human) (UniProt Q2M2I8)
MST4 (human) = MST4 (human) (UniProt Q9P289)
CRK2 (P.falciparum) = CRK2 (P.falciparum) (UniProt P61075)
FGR (human) = FGR (human) (UniProt P09769)
DAPK3 (human) = DAPK3 (human) (UniProt O43293)
Chain of DAPK3 (human) (O43293 whole entry, looked up): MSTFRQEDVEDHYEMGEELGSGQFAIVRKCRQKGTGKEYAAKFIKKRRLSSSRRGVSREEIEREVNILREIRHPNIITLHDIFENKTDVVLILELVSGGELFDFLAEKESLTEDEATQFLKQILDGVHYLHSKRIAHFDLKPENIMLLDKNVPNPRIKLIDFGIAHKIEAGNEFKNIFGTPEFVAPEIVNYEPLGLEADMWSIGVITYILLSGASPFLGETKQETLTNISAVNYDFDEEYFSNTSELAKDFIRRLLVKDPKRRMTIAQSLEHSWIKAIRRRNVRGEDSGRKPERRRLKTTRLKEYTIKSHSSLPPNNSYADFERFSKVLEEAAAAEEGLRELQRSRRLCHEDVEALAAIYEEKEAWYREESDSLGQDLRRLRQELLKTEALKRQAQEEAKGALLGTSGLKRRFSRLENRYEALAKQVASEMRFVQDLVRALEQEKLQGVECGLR

ERBB2 (human) = ERBB2 (human) (UniProt P04626)
CDK16 (human) = CDK16 (human) (UniProt Q00536)
MAP3K4 (human) = MAP3K4 (human) (UniProt Q9Y6R4)
GSK3A (human) = GSK3A (human) (UniProt P49840)
Chain of GSK3A (human) (P49840 whole entry, looked up): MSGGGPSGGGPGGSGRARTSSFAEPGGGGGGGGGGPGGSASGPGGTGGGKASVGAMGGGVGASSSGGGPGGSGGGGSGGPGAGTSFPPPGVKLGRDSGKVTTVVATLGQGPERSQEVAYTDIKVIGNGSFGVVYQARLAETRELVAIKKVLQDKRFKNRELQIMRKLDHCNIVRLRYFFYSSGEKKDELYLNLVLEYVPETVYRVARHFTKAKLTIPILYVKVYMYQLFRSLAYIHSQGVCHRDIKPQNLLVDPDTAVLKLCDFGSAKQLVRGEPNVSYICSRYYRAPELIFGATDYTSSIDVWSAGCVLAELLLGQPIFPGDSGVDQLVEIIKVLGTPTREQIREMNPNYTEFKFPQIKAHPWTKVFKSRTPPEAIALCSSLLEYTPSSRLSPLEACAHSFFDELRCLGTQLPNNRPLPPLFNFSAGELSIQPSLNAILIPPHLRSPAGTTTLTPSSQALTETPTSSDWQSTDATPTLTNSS

FYN (human) = FYN (human) (UniProt P06241)
PIM1 (human) = PIM1 (human) (UniProt P11309)
FRK (human) = FRK (human) (UniProt P42685)
CSNK1G2 (human) = CSNK1G2 (human) (UniProt P78368)
MAP3K5 (human) = MAP3K5 (human) (UniProt Q99683)
Chain of MAP3K5 (human) (Q99683 whole entry, looked up): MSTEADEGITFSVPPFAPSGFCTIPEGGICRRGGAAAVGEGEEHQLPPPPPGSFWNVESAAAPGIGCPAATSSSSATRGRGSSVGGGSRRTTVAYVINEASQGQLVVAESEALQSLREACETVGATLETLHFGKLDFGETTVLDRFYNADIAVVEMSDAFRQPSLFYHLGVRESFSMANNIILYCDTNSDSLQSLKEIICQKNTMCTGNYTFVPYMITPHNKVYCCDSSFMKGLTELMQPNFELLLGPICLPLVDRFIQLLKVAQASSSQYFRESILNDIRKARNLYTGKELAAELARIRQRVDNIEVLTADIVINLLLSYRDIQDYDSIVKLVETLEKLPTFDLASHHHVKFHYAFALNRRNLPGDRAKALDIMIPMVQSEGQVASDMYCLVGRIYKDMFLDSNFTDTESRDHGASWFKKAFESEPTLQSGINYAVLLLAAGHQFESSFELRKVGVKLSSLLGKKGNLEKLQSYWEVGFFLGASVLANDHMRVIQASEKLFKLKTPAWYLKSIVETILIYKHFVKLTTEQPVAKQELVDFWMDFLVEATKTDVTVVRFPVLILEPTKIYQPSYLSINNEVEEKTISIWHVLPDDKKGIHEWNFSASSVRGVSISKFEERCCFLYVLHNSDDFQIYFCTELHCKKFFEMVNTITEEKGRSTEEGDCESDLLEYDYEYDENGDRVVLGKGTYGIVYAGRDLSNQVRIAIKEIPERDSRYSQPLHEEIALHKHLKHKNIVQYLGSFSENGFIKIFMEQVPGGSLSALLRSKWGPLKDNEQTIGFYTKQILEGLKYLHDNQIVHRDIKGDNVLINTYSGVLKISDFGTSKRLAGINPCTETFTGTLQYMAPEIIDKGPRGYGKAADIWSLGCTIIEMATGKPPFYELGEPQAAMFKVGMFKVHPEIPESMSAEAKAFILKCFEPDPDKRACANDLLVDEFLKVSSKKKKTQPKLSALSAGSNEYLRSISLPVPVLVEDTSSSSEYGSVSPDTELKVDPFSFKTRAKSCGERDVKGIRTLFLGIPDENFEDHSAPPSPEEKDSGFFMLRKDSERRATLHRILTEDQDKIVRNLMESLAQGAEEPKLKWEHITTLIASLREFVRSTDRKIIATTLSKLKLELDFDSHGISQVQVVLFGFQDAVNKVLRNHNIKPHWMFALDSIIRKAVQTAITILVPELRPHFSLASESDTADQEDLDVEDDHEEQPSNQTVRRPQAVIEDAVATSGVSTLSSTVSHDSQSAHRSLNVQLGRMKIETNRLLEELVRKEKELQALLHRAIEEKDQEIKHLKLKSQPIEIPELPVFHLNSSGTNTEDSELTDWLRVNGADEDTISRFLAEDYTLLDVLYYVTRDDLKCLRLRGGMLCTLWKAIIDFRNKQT

RPS6KA6 KD1 (human) = RPS6KA6 KD1 (human) (UniProt Q9UK32)
BLK (human) = BLK (human) (UniProt P51451)
[2] = tested on: FLT3 (human), P36888 [D835H]

Chain of MAP4K1 (human) (Q92918 whole entry, looked up): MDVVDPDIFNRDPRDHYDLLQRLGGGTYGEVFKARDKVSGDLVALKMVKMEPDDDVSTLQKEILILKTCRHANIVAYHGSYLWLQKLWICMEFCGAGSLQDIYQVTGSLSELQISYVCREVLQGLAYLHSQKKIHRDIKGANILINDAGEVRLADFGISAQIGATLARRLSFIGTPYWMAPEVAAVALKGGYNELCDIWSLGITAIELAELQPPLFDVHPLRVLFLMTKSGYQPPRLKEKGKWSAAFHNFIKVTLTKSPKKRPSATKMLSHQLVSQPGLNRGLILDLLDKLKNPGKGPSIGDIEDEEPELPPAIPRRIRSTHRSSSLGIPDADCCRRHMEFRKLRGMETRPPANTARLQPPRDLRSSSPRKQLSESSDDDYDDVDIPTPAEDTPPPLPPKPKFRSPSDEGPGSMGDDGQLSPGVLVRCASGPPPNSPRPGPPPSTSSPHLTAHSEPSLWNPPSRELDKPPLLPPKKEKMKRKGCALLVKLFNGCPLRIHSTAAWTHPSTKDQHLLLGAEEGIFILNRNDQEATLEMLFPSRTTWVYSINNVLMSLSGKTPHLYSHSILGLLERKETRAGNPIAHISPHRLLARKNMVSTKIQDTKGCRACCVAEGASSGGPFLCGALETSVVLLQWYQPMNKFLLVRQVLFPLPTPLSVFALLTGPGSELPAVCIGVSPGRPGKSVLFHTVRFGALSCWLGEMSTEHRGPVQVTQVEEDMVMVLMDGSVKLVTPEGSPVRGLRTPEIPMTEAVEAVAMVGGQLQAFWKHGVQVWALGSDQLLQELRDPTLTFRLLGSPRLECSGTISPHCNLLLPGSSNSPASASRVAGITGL

Row | SMILES | kinase still bound, per cent of control (MAP3K6 (human)) [%] | kinase still bound, per cent of control (PKN3 (M.tuberculosis)) [%] | kinase still bound, per cent of control (MET (human)) [%] | kinase still bound, per cent of control (LYN (human)) [%] | kinase still bound, per cent of control (PRKG1 (human)) [%] | kinase still bound, per cent of control (STK38L (human)) [%] | kinase still bound, per cent of control (NUAK1 (human)) [%] | kinase still bound, per cent of control (EPHB1 (human)) [%] | kinase still bound, per cent of control (BRSK2 (human)) [%] | kinase still bound, per cent of control (PTK2B (human)) [%] | kinase still bound, per cent of control (STK32B (human)) [%] | kinase still bound, per cent of control (STK17B (human)) [%] | kinase still bound, per cent of control (PHKG2 (human)) [%] | kinase still bound, per cent of control (ULK3 (human)) [%] | kinase still bound, per cent of control (MAPK3 (human)) [%] | kinase still bound, per cent of control (FES (human)) [%] | kinase still bound, per cent of control (MINK1 (human)) [%] | kinase still bound, per cent of control (CDK13 (human)) [%] | kinase still bound, per cent of control (CDK11B (human)) [%] | kinase still bound, per cent of control (MAST1 (human)) [%] | other results
1 | COc1cc2ncn(-c3cc(OCc4ccccc4C(F)(F)F)c(C(N)=O)s3)c2cc1OC | 84 | 76 | 15 | 60 | 100 | 100 | 21 | 96 | 31 | 72 | 100 | 85 | 100 | 77 | 100 | 87 | 63 | 76 | 100 | 75 | kinase still bound, per cent of control (MAP4K1 (human)): 44%; kinase still bound, per cent of control [1]: 30%; kinase still bound, per cent of control (NEK6 (human)): 87%; kinase still bound, per cent of control (AAK1 (human)): 28%; kinase still bound, per cent of control (MST4 (human)): 85%; kinase still bound, per cent of control (CRK2 (P.falciparum)): 93%; kinase still bound, per cent of control (FGR (human)): 63%; kinase still bound, per cent of control (DAPK3 (human)): 19%; kinase still bound, per cent of control (ERBB2 (human)): 100%; kinase still bound, per cent of control (CDK16 (human)): 100%; kinase still bound, per cent of control (MAP3K4 (human)): 90%; kinase still bound, per cent of control (GSK3A (human)): 100%; kinase still bound, per cent of control (FYN (human)): 48%; kinase still bound, per cent of control (PIM1 (human)): 89%; kinase still bound, per cent of control (FRK (human)): 82%; kinase still bound, per cent of control (CSNK1G2 (human)): 100%; kinase still bound, per cent of control (MAP3K5 (human)): 87%; kinase still bound, per cent of control (RPS6KA6 KD1 (human)): 18%
2 | N#CCNC(=O)c1ccc(-c2ccnc(Nc3ccc(N4CCOCC4)cc3)n2)cc1 | 100 | 8.7 | 100 | 94 | 100 | 71 | 45 | 91 | 100 | 86 | 93 | 2.6 | 23 | 0.25 | 100 | 100 | 82 | 91 | 66 | 42 | kinase still bound, per cent of control (MAP4K1 (human)): 11%; kinase still bound, per cent of control (BLK (human)): 100%; kinase still bound, per cent of control (NEK6 (human)): 6.2%; kinase still bound, per cent of control (AAK1 (human)): 3.9%; kinase still bound, per cent of control (MST4 (human)): 83%; kinase still bound, per cent of control (CRK2 (P.falciparum)): 100%; kinase still bound, per cent of control (FGR (human)): 92%; kinase still bound, per cent of control (DAPK3 (human)): 11%; kinase still bound, per cent of control (ERBB2 (human)): 61%; kinase still bound, per cent of control (CDK16 (human)): 21%; kinase still bound, per cent of control (MAP3K4 (human)): 92%; kinase still bound, per cent of control (GSK3A (human)): 100%; kinase still bound, per cent of control (FYN (human)): 78%; kinase still bound, per cent of control (PIM1 (human)): 100%; kinase still bound, per cent of control (FRK (human)): 98%; kinase still bound, per cent of control (CSNK1G2 (human)): 100%; kinase still bound, per cent of control (MAP3K5 (human)): 100%; kinase still bound, per cent of control (RPS6KA6 KD1 (human)): 78%
3 | NC(=O)Nc1cc(-c2cccc(F)c2)sc1C(=O)N[C@@H]1CCCNC1 | 25 | 0 | 3.1 | 0.65 | 0.8 | 0 | 0 | 1.6 | 2.8 | 0.6 | 1 | 2 | 1.6 | 0 | 91 | 0.65 | 1.6 | 100 | 100 | 4.1 | kinase still bound, per cent of control (BLK (human)): 0%; kinase still bound, per cent of control [2]: 0%; kinase still bound, per cent of control (NEK6 (human)): 89%; kinase still bound, per cent of control (AAK1 (human)): 1.3%; kinase still bound, per cent of control (MST4 (human)): 0.15%; kinase still bound, per cent of control (CRK2 (P.falciparum)): 100%; kinase still bound, per cent of control (FGR (human)): 0.2%; kinase still bound, per cent of control (DAPK3 (human)): 2.9%; kinase still bound, per cent of control (ERBB2 (human)): 0%; kinase still bound, per cent of control (CDK16 (human)): 79%; kinase still bound, per cent of control (MAP3K4 (human)): 42%; kinase still bound, per cent of control (GSK3A (human)): 100%; kinase still bound, per cent of control (FYN (human)): 0.05%; kinase still bound, per cent of control (PIM1 (human)): 48%; kinase still bound, per cent of control (FRK (human)): 0.65%; kinase still bound, per cent of control (CSNK1G2 (human)): 0.95%; kinase still bound, per cent of control (MAP3K5 (human)): 40%; kinase still bound, per cent of control (RPS6KA6 KD1 (human)): 0.3%
4 | CNC(=O)c1cc(Oc2ccc(NC(=O)Nc3ccc(Cl)c(C(F)(F)F)c3)cc2)ccn1 | 100 | 100 | 69 | 16 | 95 | 100 | 84 | 30 | 85 | 100 | 100 | 59 | 100 | 92 | 100 | 74 | 46 | 86 | 98 | 100 | kinase still bound, per cent of control (MAP4K1 (human)): 41%; kinase still bound, per cent of control (BLK (human)): 31%; kinase still bound, per cent of control [1]: 0%; kinase still bound, per cent of control (NEK6 (human)): 100%; kinase still bound, per cent of control (AAK1 (human)): 100%; kinase still bound, per cent of control (MST4 (human)): 100%; kinase still bound, per cent of control (CRK2 (P.falciparum)): 94%; kinase still bound, per cent of control (FGR (human)): 53%; kinase still bound, per cent of control (DAPK3 (human)): 88%; kinase still bound, per cent of control (ERBB2 (human)): 100%; kinase still bound, per cent of control (CDK16 (human)): 72%; kinase still bound, per cent of control (MAP3K4 (human)): 98%; kinase still bound, per cent of control (GSK3A (human)): 67%; kinase still bound, per cent of control (FYN (human)): 48%; kinase still bound, per cent of control (PIM1 (human)): 98%; kinase still bound, per cent of control (CSNK1G2 (human)): 94%; kinase still bound, per cent of control (MAP3K5 (human)): 90%
